From patent US20040171073A1, “Compounds for modulation of cholesterol transport” (Massachusetts Institute of Technology, priority 2002, published 2004)

Molecular target: T1, murine SR-BI (Mus musculus, UniProt Q61009)
T1 construct: expressed in transfected cells; host or cells: ldlA-7 (LDL receptor deficient Chinese hamster ovary cells)
T1 sequence (Q61009 1-509): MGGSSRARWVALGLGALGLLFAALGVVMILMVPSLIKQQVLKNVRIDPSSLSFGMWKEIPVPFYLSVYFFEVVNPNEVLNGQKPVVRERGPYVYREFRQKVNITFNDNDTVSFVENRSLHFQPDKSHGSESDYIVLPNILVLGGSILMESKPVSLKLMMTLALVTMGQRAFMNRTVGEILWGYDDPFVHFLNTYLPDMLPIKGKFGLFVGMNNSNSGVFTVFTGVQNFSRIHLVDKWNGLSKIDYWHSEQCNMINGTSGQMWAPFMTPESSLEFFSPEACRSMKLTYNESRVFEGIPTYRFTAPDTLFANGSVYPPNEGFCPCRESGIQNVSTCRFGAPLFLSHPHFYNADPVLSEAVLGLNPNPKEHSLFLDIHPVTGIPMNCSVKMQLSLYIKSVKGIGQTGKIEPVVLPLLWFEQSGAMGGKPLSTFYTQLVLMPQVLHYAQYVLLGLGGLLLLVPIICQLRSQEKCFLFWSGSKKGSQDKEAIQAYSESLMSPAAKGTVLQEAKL
Test: Uptake of DiI from DiI-HDL by ldlA[mSR-BI] cells (high throughput screen and concentration dependence)
Format: cell-based

[1] = DiI uptake from DiI-HDL, compounds at nominal 10 micromolar, ldlA[mSR-BI] cells

| SMILES | ENDOHDL Test 1 [1] | ENDOHDL Test 2 [1] | ENDOHDL Test 1 | ENDOHDL Test 2 |
| --- | --- | --- | --- | --- |
| O=C(O)c1cc(C(=O)O)nc(C(=O)O)c1 [MIT 9952-319] | 1.13 | 1.17 |  |  |
| CCN1/C(=C\C(=O)c2ccc(C)cc2)Sc2ccccc21 [MIT 9952-295] | 0.64 | 0.58 |  |  |
| O=[N+]([O-])c1ccc(-c2sc(/N=C/c3c(O)ccc4ccccc34)nc2-c2ccc(Cl)cc2)cc1 [MIT 9952-286] | 0.62 | 0.64 |  |  |
| C/C(CCS(=O)(=O)c1ccc(C)cc1)=N\NC(N)=S [MIT 9952-225] |  |  | 0.56 | 0.59 |
| COc1cccc(NC(=O)c2sc(-c3ccccc3)nc2-c2ccc([N+](=O)[O-])cc2)c1 [MIT 9952-118] |  |  | 0.51 | 0.63 |
| Cn1cc(C=O)c2cc(Br)ccc21 [MIT 9952-193] |  |  | 0.66 | 0.69 |
| CC(=O)c1c(C)n(-c2ccccc2)c2ccc(O)cc12 [MIT 9952-119] |  |  | 0.62 | 0.64 |
| O=C(Nc1ccc(Cl)c([N+](=O)[O-])c1)c1cccc(C(=O)Nc2ccc(Cl)c([N+](=O)[O-])c2)c1 [MIT 9952-219] |  |  | 0.55 | 0.55 |
| COc1ccccc1NC(=O)Nc1ccc2ccccc2c1 [MIT 9952-149] |  |  | 0.62 | 0.6 |
| COc1ccc(COCC(Cl)CN2CCCCC2)cc1OC.Cl (stereo not shown) [MIT 9952-40] |  |  | 1.28 | 1.23 |
| O=C(Nc1ccc(-c2nc3ccccc3s2)cc1)c1ccc(Cl)cc1Cl [MIT 9952-284] | 0.65 | 0.54 |  |  |
